Columns and labels:
Assay type in all cases: in vivo
Digitaria ciliaris [1] = assay: Test Example 4: herbicidal effect test by stem and leaf treatment in upland field; details: Digitaria ciliaris; 120 g per 10 ares; sprayed seven days after sowing, upland soil; 14 days after application; read-out: weed inhibition rate
Digitaria ciliaris [2] = assay: Test Example 7: herbicidal effect test by soil application in upland field (low dose); details: Digitaria ciliaris, 7.5 g per 10 ares, sprayed one day after sowing, 14 days after application, read-out: weed inhibition rate
In short: (§1)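 Upland soil (alluvial loam) pots, seeds mixed into top 1 cm layer → EC formulation diluted with water, sprayed onto soil 1 d post-sowing, 100 L/10 a → 7.5 g a.i./10 a → inhibition (%) scored at 14 d, n=2.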

Echinochloa crus-galli [3] = assay: as above; details: Echinochloa crus-galli, 7.5 g per 10 ares, sprayed one day after sowing, 14 days after application, read-out: weed inhibition rate
In short: as §1

Digitaria ciliaris [4] = assay: Test Example 3: herbicidal effect test by soil application in upland field; details: Digitaria ciliaris, 120 g per 10 ares, sprayed one day after sowing, 14 days after application, read-out: weed inhibition rate
In short: (§2)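 Pre-emergence test: seeds mixed into top 1 cm of alluvial loam upland soil in pots; emulsifiable concentrate diluted in water sprayed on soil one day after sowing at 100 L/10 a, 120 g a.i./10 a. Weed inhibition rate (%) scored at 14 days, in duplicate.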

Echinochloa crus-galli [5] = assay: as above; details: Echinochloa crus-galli, 120 g per 10 ares, sprayed one day after sowing, 14 days after application, read-out: weed inhibition rate
In short: as §2

Scirpus juncoides = assay: Test Example 6: herbicidal effect test by application during growth period of paddy rice (low dose); details: Schoenoplectiella juncoides; 7.5 g per 10 ares; applied seven days after sowing, flooded pots; 14 days after application; read-out: weed inhibition rate
In short: (§3)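 Paddy soil in flooded Wagner pots (about 3 cm water), weeds sown at 0–1 cm, 30 seeds each, grown in a glass greenhouse. Seven days after sowing, water-diluted emulsifiable concentrate was dropped into the water at 7.5 g active ingredient per 10 ares. Weed inhibition rate (%) was scored 14 days after application, in duplicate.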

Monochoria vaginalis = assay: as above; details: Pontederia vaginalis; 7.5 g per 10 ares; applied seven days after sowing, flooded pots; 14 days after application; read-out: weed inhibition rate
In short: as §3

[6] = system: Echinochloa crus-galli var. formosensis; assay: as above; details: Echinochloa crus-galli; 7.5 g per 10 ares; applied seven days after sowing, flooded pots; 14 days after application; read-out: weed inhibition rate
In short: as §3

[7] = system: Echinochloa crus-galli var. formosensis at the three-leaf stage; assay: Comparative Example: herbicidal effect test by application during growth period of paddy rice (three-leaf stage, Table 7); details: 504 h, active ingredient 7.5 g per 10 ares, emulsifiable concentrate applied by dropper to flooded pots, 21 days after chemical application, triplicate, read-out: Weed inhibition rate (%)
Method: As an example, the herbicidal effect on Echinochloa crus-galli var. formosensis at the three-leaf stage was confirmed by the following method, and the results are specifically shown in Table 7 as a comparative example.
Wagner pots with an area of […] were filled with paddy soil, followed by addition of water and incorporation of chemical fertilizer (N:P:K = 16:16:16), after which puddling was performed. After that, 30 seeds of Echinochloa crus-galli var. formosensis were sown at a depth of 0 cm to 1 cm. Immediately after sowing, the pots were flooded and a water depth of approximately 3 cm was maintained. Subsequent management was conducted in a glass greenhouse. When Echinochloa crus-galli var. formosensis reached the three-leaf stage, an emulsifiable concentrate prepared according to Formulation Example 5 using the compound shown below was diluted with water, and a specified amount of the diluted solution was applied by dropper. The amount of the active ingredient to be applied was equivalent to 7.5 g per 10 ares. The test was conducted in triplicate for each chemical concentration group, and the weed inhibition rate (%) was determined 21 days after chemical application using the following formula (Math. 1).

Chenopodium album = assay: Test Example 3: herbicidal effect test by soil application in upland field; details: 120 g per 10 ares, sprayed one day after sowing, 14 days after application, read-out: weed inhibition rate
In short: as §2

Amaranthus viridis = assay: as above; details: Amaranthus viridis, 120 g per 10 ares, sprayed one day after sowing, 14 days after application, read-out: weed inhibition rate
In short: as §2

| SMILES | inhibition at 1200 g/ha (Digitaria ciliaris [1]) [%] | inhibition at 75 g/ha (Digitaria ciliaris [2]) [%] | inhibition at 75 g/ha (Echinochloa crus-galli [3]) [%] | inhibition at 1200 g/ha (Digitaria ciliaris [4]) [%] | inhibition at 1200 g/ha (Echinochloa crus-galli [5]) [%] | inhibition at 75 g/ha (Scirpus juncoides) [%] | inhibition at 75 g/ha (Monochoria vaginalis) [%] | inhibition at 75 g/ha [6] [%] | inhibition at 75 g/ha [7] [%] | inhibition at 1200 g/ha (Chenopodium album) [%] | inhibition at 1200 g/ha (Amaranthus viridis) [%] |
| --- | --- | --- | --- | --- | --- | --- | --- | --- | --- | --- | --- |
| CC(C)[C@]12C[C@@H](OCc3c(F)cccc3F)[C@](C)(C[C@@H]1Br)O2 [1-21, (1S,2R,4R,5S)-5-bromo-2-[(2,6-difluorophenyl)methoxy]-1-methyl-4-isopropyl-7-oxabicyclo[2.2.1]heptane] | ≥ 80 | ≥ 80 | ≥ 80 | ≥ 80 | ≥ 80 | ≥ 80 | ≥ 80 | ≥ 80 | 93 |  |  |
| CC(C)[C@]12C[C@@H](OCc3c(F)cccc3F)[C@](C)(C[C@@H]1F)O2 [1-7, (1S,2R,4R,5S)-2-((2,6-difluorobenzyl)oxy)-5-fluoro-4-isopropyl-1-methyl-7-oxabicyclo[2.2.1]heptane] | ≥ 80 | ≥ 80 | ≥ 80 | ≥ 80 | ≥ 80 |  | ≥ 80 | ≥ 80 | 100 | ≥ 80 | ≥ 80 |
| CCC1C[C@]2(C)O[C@@]1(C(C)C)C[C@H]2OCc1ccccc1F (stereo partly drawn) [1-126, (1R,4S,5R)-2-ethyl-5-[(2-fluorobenzyl)oxy]-1-isopropyl-4-methyl-7-oxabicyclo[2.2.1]heptane] | ≥ 80 | ≥ 80 | ≥ 80 | ≥ 80 | ≥ 80 |  |  | ≥ 80 | 100 | ≥ 80 |  |
| CC(C)[C@]12C=C[C@](C)(O1)C(OCc1ccccc1F)C2 (mixture of isomers) [3-5, (1R,4S,SR)-5-[(2-fluorophenyl)methoxy]-4-methyl-1-isopropyl-7-oxabicyclo[2.2.1]hept-2-ene] | ≥ 80 | ≥ 80 | ≥ 80 | ≥ 80 | ≥ 80 | ≥ 80 | ≥ 80 | ≥ 80 | 82 | ≥ 80 | ≥ 80 |
| C=C1C[C@]2(C)O[C@@]1(C(C)C)C[C@H]2OCc1ccccc1F [2-88, (1R,4S,5R)-5-((2-fluorobenzyl)oxy)-1-isopropyl-4-methyl-2-methylene-7-oxabicyclo[2.2.1]heptane] | ≥ 80 | ≥ 80 | ≥ 80 | ≥ 80 | ≥ 80 | ≥ 80 | ≥ 80 | ≥ 80 | 80 | ≥ 80 | ≥ 80 |
| CC(C)[C@]12C[C@@H](OCc3c(F)cccc3F)[C@](C)(CC1C)O2 (stereo partly drawn) [1-111, (1S,2R,4R)-2-((2,6-difluorobenzyl)oxy)-4-isopropyl-1,5-dimethyl-7-oxabicyclo[2.2.1]heptane] | ≥ 80 | ≥ 80 | ≥ 80 | ≥ 80 | ≥ 80 |  |  | ≥ 80 | 100 | ≥ 80 |  |
| Cc1ccccc1CO[C@@H]1C[C@]2(C(C)C)O[C@@]1(C)C[C@@H]2F [1-2, (1R,2S,4S,5R)-2-fluoro-1-isopropyl-4-methyl-5-((2-methylbenzyl)oxy)-7-oxabicyclo[2.2.1]heptane] | ≥ 80 | ≥ 80 | ≥ 80 | ≥ 80 | ≥ 80 | ≥ 80 | ≥ 80 | ≥ 80 | 94 | ≥ 80 |  |
| CCO[C@H]1C[C@]2(C)O[C@@]1(C(C)C)C[C@H]2OCc1ccccc1F [1-183, (1S,2R,4R,5S)-5-ethoxy-2-[(2-fluorophenyl)methoxy]-1-methyl-4-isopropyl-7-oxabicyclo[2.2.1]heptane] | ≥ 80 | ≥ 80 | ≥ 80 | ≥ 80 | ≥ 80 | ≥ 80 | ≥ 80 | ≥ 80 | 93 |  |  |
| CC(C)[C@]12C[C@@H](OCc3ccccc3F)[C@](C)(C[C@@H]1F)O2 [1-5, (1R,2S,4S,5R)-2-fluoro-5-((2-fluorobenzyl)oxy)-1-isopropyl-4-methyl-7-oxabicyclo[2.2.1]heptane] | ≥ 80 | ≥ 80 | ≥ 80 | ≥ 80 | ≥ 80 | ≥ 80 | ≥ 80 | ≥ 80 | 100 | ≥ 80 |  |
| Cc1ccccc1CO[C@@H]1C[C@]2(C(C)C)O[C@@]1(C)CC2C (stereo partly drawn) [1-83, (1S,2R,4R)-4-isopropyl-1,5-dimethyl-2-((2-methylbenzyl)oxy)-7-oxabicyclo[2.2.1]heptane] | ≥ 80 | ≥ 80 | ≥ 80 | ≥ 80 | ≥ 80 | ≥ 80 | ≥ 80 | ≥ 80 | 99 | ≥ 80 |  |
| C=CCO[C@H]1C[C@]2(C)O[C@@]1(C(C)C)C[C@H]2OCc1ccccc1F [1-1602, (1S,2R,4R,5S)-2-[(2-fluorophenyl)methoxy]-1-methyl-4-isopropyl-5-prop-2-enoxy-7-oxabicyclo[2.2.1]heptane] | ≥ 80 | ≥ 80 | ≥ 80 | ≥ 80 | ≥ 80 | ≥ 80 | ≥ 80 | ≥ 80 | 82 |  |  |
| CC(C)[C@]12C[C@@H](OCc3ccccc3)[C@](C)(C[C@@H]1Br)O2 [1-15, (1S,2R,4R,5S)-5-bromo-1-methyl-2-phenylmethoxy-4-isopropyl-7-oxabicyclo[2.2.1]heptane] | ≥ 80 | ≥ 80 | ≥ 80 | ≥ 80 | ≥ 80 | ≥ 80 | ≥ 80 | ≥ 80 | 80 |  |  |
| CC(C)[C@]12C[C@@H](OCc3ccccc3F)[C@](C)(C[C@@H]1Br)O2 [1-19, (1S,2R,4R,5S)-5-bromo-2-[(2-fluorophenyl)methoxy]-1-methyl-4-isopropyl-7-oxabicyclo[2.2.1]heptane] | ≥ 80 | ≥ 80 | ≥ 80 | ≥ 80 | ≥ 80 |  |  | ≥ 80 | 88 | ≥ 80 |  |
